Patent US12240862B2, “Inhibitors of peptidylarginine deiminases” (Gilead Sciences, Inc., priority 2020, dated 2025)

Biological target: T1, human PAD4 (Homo sapiens, UniProt Q9UM07)
T1 construct: human PAD4 (NM_012387), A2P663, was PCR amplified; His-SUMO (N, cleaved yes); made in house; host or cells: E. coli BL21(DE3)
Assay: In vitro PAD4 BAEE biochemical assay
Conditions: human PAD4, BAEE substrate; 5 nM PAD4, 2 mM calcium chloride, 3 mM BAEE; geometric mean of multiple experiments
Method in brief: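 Ammonia release from BAEE deimination monitored by o-phthalaldehyde amine coupling (1 h, 25 °C) after EDTA stop. Final conditions: 5 nM tag-free recombinant human PAD4 (E. coli), 2 mM CaCl2, 3 mM BAEE, pH 7.6 MOPS with DTT; 30 min compound preincubation, then 2 h reaction at 25 °C.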

T1 sequence (Q9UM07 2-663): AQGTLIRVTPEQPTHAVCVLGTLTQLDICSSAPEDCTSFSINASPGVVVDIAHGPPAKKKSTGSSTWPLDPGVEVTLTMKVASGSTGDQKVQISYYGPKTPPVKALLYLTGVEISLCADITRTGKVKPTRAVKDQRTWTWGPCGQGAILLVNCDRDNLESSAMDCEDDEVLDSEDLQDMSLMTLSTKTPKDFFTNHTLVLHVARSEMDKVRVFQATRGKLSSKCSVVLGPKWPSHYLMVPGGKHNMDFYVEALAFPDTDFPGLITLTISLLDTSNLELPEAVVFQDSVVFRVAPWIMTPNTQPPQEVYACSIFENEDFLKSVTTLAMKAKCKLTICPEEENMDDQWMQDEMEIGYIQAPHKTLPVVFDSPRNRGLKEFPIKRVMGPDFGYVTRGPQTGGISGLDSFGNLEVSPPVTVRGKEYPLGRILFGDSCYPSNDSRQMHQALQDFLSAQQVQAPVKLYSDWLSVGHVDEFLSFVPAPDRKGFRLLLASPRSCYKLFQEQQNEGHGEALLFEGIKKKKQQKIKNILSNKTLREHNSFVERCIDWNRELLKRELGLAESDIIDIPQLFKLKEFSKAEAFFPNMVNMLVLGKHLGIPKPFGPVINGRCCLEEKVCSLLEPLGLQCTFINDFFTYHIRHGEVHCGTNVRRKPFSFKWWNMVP

Compound | IC50 [nM]
COc1cc(C(=O)N2[C@H]3CC[C@@H]2[C@H](N)C3)cc2nc(-c3cc4ccc([C@@H](C)NC(=O)N5CCC(F)(F)C5)nc4n3CC3CC3)c(C)n12 [Example 243, ~{N}-[(1~{R})-1-[2-[7-[(1~{R},2~{R},4~{S})-2-amino-7-azabicyclo[2.2.1]heptane-7-carbonyl]-5-methoxy-3-methylimidazo [1,2-a]pyridin-2-yl]-1-(cyclopropylmethyl)pyrrolo [2,3-b]pyridin-6-yl]ethyl]-3,3-difluoropyrrolidine-1-carboxamide] | 80.7
COc1ccc2cc(-c3nc4cc(C(=O)N5CCC[C@@H](N)C5)cc(OC)n4c3C)n(CC3CC3)c2n1 [Example 629, [(3~{R})-3-aminopiperidin-1-yl]-[2-[1-(cyclopropylmethyl)-6-methoxypyrrolo[2,3-b]pyridin-2-yl]-5-methoxy-3-methylimidazo[1,2-a]pyridin-7-yl]methanone] | 2270
COc1cc(C(=O)N2CCC3(CCCCN3)C2)cc2nc(-c3cc4ccc([C@@H](C)NC(=O)C56CC(F)(C5)C6)nc4n3CC3CC3)c(C)n12 (some centres unmarked) [Example 4, ~{N}-[(1~{R})-1-[1-(cyclopropylmethyl)-2-[7-(2,6-diazaspiro [4.5]decane-2-carbonyl)-5-methoxy-3-methylimidazo[1,2-a]pyridin-2-yl]pyrrolo[2,3-b]pyridin-6-yl]ethyl]-3-fluorobicyclo[1.1.1] pentane-1-carboxamide] | 23400
CCC(NC(C)=O)c1ccc2cc(-c3nc4cc(C(=O)N5CCC[C@@H](N)C5)cc(OC)n4c3C)n(CC3CC3)c2n1 (some centres unmarked) [Example 193, ~{N}-[1-[2-[7-[(3~{R})-3-aminopiperidine-1-carbonyl]-5-methoxy-3-methylimidazo [1,2-a]pyridin-2-yl]-1-(cyclopropylmethyl)pyrrolo [2,3-b]pyridin-6-yl]propyl]acetamide] | 400

The next lines start with the values.

IC50 [nM] | Compound
63.6 | COc1cc(C(=O)N2[C@H]3CC[C@@H]2[C@H](N)C3)cc2nc(-c3cc4ccc([C@@H](C)NC(=O)N5CCN(C)CC5)nc4n3CC3CC3)c(C)n12 [Example 235, ~{N}-[(1~{R})-1-[2-[7-[(1~{R},2~{R},4~{S})-2-amino-7-azabicyclo[2.2.1]heptane-7-carbonyl]-5-methoxy-3-methylimidazo [1,2-a]pyridin-2-yl]-1-(cyclopropylmethyl)pyrrolo [2,3-b]pyridin-6-yl]ethyl]-4-methylpiperazine-1-carboxamide]
139 | COc1cc(C(=O)N2CCC[C@@H](N)C2)cc2nc(-c3cc4ccc([C@@H](C)NC(=O)C(C)(C)C)nc4n3CC3CC3)c(C3CC3)n12 [Example 143, ~{N}-[(1~{R})-1-[2-[7-[(3~{R})-3-aminopiperidine-1-carbonyl]-3-cyclopropyl-5-methoxyimidazo [1,2-a]pyridin-2-yl]-1-(cyclopropylmethyl)pyrrolo [2,3-b]pyridin-6-yl]ethyl]-2,2-dimethylpropanamide]
130 | COc1cc(C(=O)N2[C@H]3CC[C@@H]2[C@H](N)C3)cc2nc(-c3cc4ccc([C@@H](C)NC(=O)C56CC(F)(C5)C6)nc4n3CC3CC3)c(C3CC3)n12 [Example 144, ~{N}-[(1~{R})-1-[2-[7-[(1~{R},2~{R},4~{S})-2-amino-7-azabicyclo[2.2.1]heptane-7-carbonyl]-3-cyclopropyl-5-methoxyimidazo[1,2-a]pyridin-2-yl]-1-(cyclopropylmethyl)pyrrolo [2,3-b]pyridin-6-yl]ethyl]-3-fluorobicyclo[1.1.1]pentane-1-carboxamide]
60.5 | COc1cc(C(=O)N2[C@H]3CC[C@@H]2[C@H](N)C3)cc2nc(-c3cc4ccc([C@@H](C)NC(=O)C5(C#N)CC5)nc4n3CC3CC3)c(C)n12 [Example 165, ~{N}-[(1~{R})-1-[2-[7-[(1~{R},2~{R},4~{S})-2-amino-7-azabicyclo[2.2.1]heptane-7-carbonyl]-5-methoxy-3-methylimidazo [1,2-a]pyridin-2-yl]-1-(cyclopropylmethyl)pyrrolo [2,3-b]pyridin-6-yl]ethyl]-1-cyanocyclopropane-1-carboxamide]
